Results published in patent US6770673B1, “Therapeutic uses of arglabin in combination with other chemotherapy agents” (priority 1997, dated 2004).
Where two headings read alike, the source gives them in different places. Marks after values point to notes of the source that are not given here.

Legend:
[1] = system: Pliss Lymphosarcoma resistant to prospidine; assay: Inhibition of growth of resistant tumour strains; duration of life and metastasis; type: in vivo, rats
[2] = system: Alveolar Cancer of the liver; assay: Inhibition of tumor growth in implanted tumors; type: in vivo, mice and rats; conditions: dose 50 mg/kg
[3] = system: end-stage (III-IV) cancer; assay: First clinical trial, 51 patients
Experimental: The patient population was 67.9% male and 32.1% female. […] Intrapleural administration was used for patients with pleurisy. Patients were given a very small dose and monitored for any signs of allergic reaction before proceeding. […] After 30-35 days, the dose was increased to 480 mg per day. […] It was estimated that the daily dose should be about 240-280 mg for typical cases. […] Additional courses of treatment were administered to some patients. Patient condition before treatment was rated on a scale of 1 to 3, where 1 was bedridden, 2 was a significant restriction on activity and 3 retained full activity. Therapeutic result was measured on a scale from 0 to 3, where 0 was no improvement, 1 was insignificant or improvement for less than a month, 2 was considerable improvement (25-50% reduction in tumor size) and 3 was sharp improvement (50-100% reduction in tumor size).

immune system [4] = assay: Immunological indices in intact August rats; type: in vivo; conditions: about 50 mg/kg IP daily for 10 days
From the text: Additional immunological data were obtained from an “August” line of rats, weighing 140-160 g, with and without Pliss lymphosarcoma. […] Results are summarized in Table V. Overall, lyophilized-dimethylaminoarglabin hydrochloride stimulated delayed type hypersensitivity, but reduced all other studied indices in intact rats. In rats with Pliss Lymphosarcoma, the immune system was stimulated, as all studied indices increased.

Leucemia P-388 = assay: Implanted leukemia, inhibition / survival; type: in vivo, mice and rats
immune system [5] = assay: Indices of patients' immunity, rozette forming and phagocytosis methods (Table X); type: in vivo, human
Experimental: The indices of immune system were determined using rozette forming and phagocytosis methods. […] Eleven indices of cellular and humoral immunity were measured from each patient in order to evaluate immune status. The following indices were determined on 0.05 ml of peripheral blood: absolute and relative amount of T- and B-lymphocytes, amount of non-differentiated “zero” cells, adhesion and phagocyte activity of neutrophils, hemogram, level of serum immunoglobulins. Indices were determined before treatment, on days 2, 5 and 14 of treatment, and after treatment.
Mean values of immunological indices were evaluated with regression analysis. Functional conditions of the immune system were estimated using integral indices such as a mean intensity (correlation) expressed in relative units.

sarcoma 45 = assay: Disturbance of DNA synthesis in tumors (inhibition index); type: in vivo, rats; conditions: drug resistant sarcoma 45, alone
immune system [6] = assay: Immune system modulation in intact mice; type: in vivo
Experimental: In intact mice, injection of 10 mg/kg increased the total number of leukocytes through an increase in the absolute number of lymphocytes. […] The nitroblue tetrazolium assay was used to assess the function of the neutrophils. […] With a higher dosage, 20 mg/kg, a decrease in nitroblue tetrazolium positive neutrophils was seen, indicating a decrease in function.
The level of the T-suppressor subpopulation was not altered. At a higher dosage (20 mg/kg), overall leukocyte number was not altered, even though B-lymphocyte number decreased and T-lymphocyte decreased to a lesser extent. Natural killer cell number was increased.
The increase in T-lymphocytes was accompanied by an increase in the level of the T-helper subpopulation of T-lymphocytes.

[7] = in vivo
Experimental: Maximum tolerable doses (MTD) of arglabin and derivatives were determined by daily intraperitoneal administration to rats, guinea pigs or mice and daily intravenous administration to rabbits over a period of five to 20 days.

Geren's carcinosarcoma = assay: Inhibition of tumor growth in implanted tumors; type: in vivo, mice and rats
cancer = assay: Case records of selected patients, monochemotherapy; type: in vivo, human
From the text: The following are abstracts from the case records of selected patients, who received dimethylaminoarglabin hydrochloride monochemotherapy.

Pliss lymphosarcoma = assay: Inhibition of tumor growth in implanted tumors; type: in vivo, rats; conditions: dose 30 mg/kg
P-815 cells = assay: Proliferation of transformed cells, 3H-thymidine incorporation; type: cell-based, mouse; conditions: 3H-thymidine 18 hours, FIG. 6
Experimental: (§1) Mouse mastocytoma (P-815), myeloma (Z-P3x63Ag8.653 and Pai) and human erthyroleukemia (K-562) cell lines were used. Primary cultures of normal mouse hepatocytes were isolated from mouse liver using collagenase. Mouse splenocytes were isolated using a glass homogenizer. Marrow cells were obtained by washing the bone marrow. See, for example, Shears, S. B. and Kirk, C. J. (1984), Biochem. J. 219:375-382.
(§2) Cells were cultured in RPMI-1640 medium supplemented with 10% fetal calf serum, 100 mM L-glutamine and 50 μg/ml gentamycin at 37° C. under 5% CO2. Cells were seeded into 24-well plates at a density of 50,000 cells/well and grown until near confluency, approximately 2 days, then transferred to 96-well plates at the same density. […] Viability of the cells was determined by trypan blue exclusion. […] Approximately 25% of K-562 and X-653 cells survived at a concentration of 12 μg/ml, and the same proportion of P-815 cells survived at a concentration of about 25 μg/ml.
(§3) The proliferation of the transformed cells was assessed by incubating ^3H-labeled thymidine in the media for 18 hours. At the end of the specified time period, the proliferation was measured by counting the amount of ^3H-thymidine incorporated. Thymidine incorporation provides a quantitative measure of the rate of DNA synthesis, which is typically directly proportional to the rate of cell division.

X-653 cells = assay: as above; type: cell-based, mouse; conditions: 3H-thymidine 18 hours, FIG. 6
Experimental: as §1, §2, §3

[8] = system: Sarcoma-45 resistant to 5-fluorouracil; assay: Inhibition of growth of resistant tumour strains; type: in vivo, rats; conditions: dose 50 mg/kg
immune system [9] = assay: Immune system modulation in intact mice; type: in vivo; remark: listed apart in the source

SMILES: CC1=CCC23OC2(C)CCC2C(CN(C)C)C(=O)OC2C13.Cl (stereo not drawn) [Dimethylaminoarglabin hydrochloride]
- Inhibition of Tumour Strains Growth, % - Resistant Forms - Pliss Lymphosarcoma to prospidine ([1]; dose 30 mg/kg): 62.3%
- Inhibition of Tumour Strains Growth, % - Resistant Forms - Pliss Lymphosarcoma to prospidine ([1]; dose 50 mg/kg): 87.4*** %
- Inhibition of Tumour Growth, % - Alveolar Cancer of the liver [2]: 80.0%
- complaints at high dose ([3]; 480 mg per day): nausea and vomiting
- patients with a considerable improvement ([3]; liver cancer): 55.6%
- patients with a considerable improvement ([3]; lung cancer): about 64%
- patients with a considerable improvement ([3]; ovarian cancer): 66%
- patients with a considerable improvement ([3]; overall): approximately 30%
- Note(s) - decrease in tumor ([3]; patient 47, rectal cancer III stage, suppositories): 50% decrease
- hematopoiesis ([3]; patients): did not suppress hematopoiesis
- toxicity ([3]; patients): little toxicity
- taste reported immediately after administration ([3]; quickly dissipated): bitter taste
- Hemagglutination (RHG), Intact Rats After Treatment (immune system [4]; Decreased): 43-53%
- Nitroblue tetrazolium (NBT), Intact Rats After Treatment (immune system [4]; Decreased): 67-91%
- Spontaneous-erythrocyte rosette forming (E-ROK), Intact Rats After Treatment (immune system [4]; Decreased): 64-84%
- Delayed type hypersensitivity, Intact Rats After Treatment (immune system [4]; Increased): 153-207%
- Leucemia P-388 PALT - increase in survival (Leucemia P-388; dose 30 mg/kg): +144%
- Leucemia P-388 PALT - increase in survival (Leucemia P-388; dose 50 mg/kg): +109.0%
- level of non-differentiated "zero" cells (immune system [5]; 2nd-5th day of treatment): increased
- percentage of T-lymphocytes and T-helper lymphocytes (immune system [5]; 2nd-5th day of treatment): reduced considerably
- immunoglobulins A, M and G (immune system [5]; after the treatment): increased amount
- DNA inhibition index (sarcoma 45): 99%
- total number of leukocytes (immune system [6]; 10 mg/kg): increased
- B-lymphocytes (immune system [6]; 10 mg/kg daily IP for 10 days): remained stable
- overall leukocyte count (immune system [6]; 10 mg/kg daily IP for 10 days): increased
- leukocyte number (immune system [6]; 20 mg/kg): did not result in an overall increase
- nitroblue tetrazolium positive neutrophils (immune system [6]; 20 mg/kg): decrease
- natural killer cell number (immune system [6]; 20 mg/kg daily IP for 10 days): increased
- maximum dosage (MTD) ([7]; guinea pig): 45 mg/kg
- maximum dosage (MTD) ([7]; mouse): 30 mg/kg
- maximum dosage (MTD) ([7]; rabbit): 20 mg/kg
- maximum dosage (MTD) ([7]; rat): 50 mg/kg
- Inhibition of Tumour Growth, % - Geren's carcinosarcoma (Geren's carcinosarcoma; dose 30 mg/kg): 80.1%
- Inhibition of Tumour Growth, % - Geren's carcinosarcoma (Geren's carcinosarcoma; dose 50 mg/kg): 83.3* %
- condition of patient with brain tumor (cancer; Patient A, case number 543, after the first course): condition was stabilized
- infiltration of the right breast decreased (cancer; Patient M, case number 305, breast cancer, 5 courses): 50%
- outcome of liver cancer (cancer; patient, case number N2225, embryonal carcinoma of the liver, 120 mg IV daily): complete recovery
- Inhibition of Tumour Growth, % - Pliss lymphosarcoma (Pliss lymphosarcoma): 79.6%
- concentration at which proliferation was effectively blocked (P-815 cells): 12 µg/mL
- concentration at which proliferation was effectively blocked (X-653 cells): 6 µg/mL
- Inhibition of Tumour Strains Growth, % - Resistant Forms - Sarcoma-45 to 5-fluorouracil [8]: 62.3%
- hemagglutination titer (immune system [9]; 100 mg/kg IP): slight decrease
- hemagglutination test index (immune system [9]; repeated IP 30 mg/kg, day 10): decreased
- hemagglutination titers (immune system [9]; repeated IP 10 and 20 mg/kg, days 5 and 10): increased
- delayed-type hypersensitivity reaction (immune system [9]; repeated IP, day 5): No effect
- delayed-type hypersensitivity reaction (immune system [9]; repeated IP, day 10): increased by day 10
- delayed-type hypersensitivity reaction (immune system [9]; single 50 mg/kg IP): did not alter
- hemagglutination titer (immune system [9]; single 50 mg/kg IP): did not alter
